Experimental data taken from US20050267128A1, “Compounds, compositions and methods of modulating the mitochondrial apoptosis-induced channel (MAC)” (priority 2004, published 2005).
“Also recorded” adds a separate entry of the source. Blank lines part the entries; values can stand above or below the compound they belong to.

Tests used:
[1] = tested on: mitochondrial apoptosis-induced channel (MAC); experiment: Patch clamp of MAC in proteoliposomes containing mitochondrial outer membranes of apoptotic FL5.12 cells; type: biochemical, mouse; details: for voltage dependence of MAC blockade: current voltage curves between +40 mV and −40 mV; for Hill coefficient of MAC blockade / IC50 / IC50 for MAC, stated in words: patch clamp, proteoliposomes; for IC50: 150 mM KCl 5 mM HEPES pH 7.4, read-out: IC50 for blockade of MAC (inhibition of conductance); for reversibility of MAC blockade on removal by perfusion of the bath: wash out with 150 mM KCl 5 mM HEPES
Experimental: Hematopoietic FL5.12 cells are a mouse leukemia cell line that enters apoptosis after withdrawal of the growth factor interleukin-3 (IL-3) (Gross, A., Jockel, J., Wei, M. C. and Korsmeyer, S. J. (1998). Parental FL5.12 cells were cultured as previously described (Gross, A., Jockel, J., Wei, M. C. and Korsmeyer, S. J. (1998) EMBO J. 17, 3878-85) in Iscove's Modified Eagle Media (IMEM), 10% Fetal Bovine Serum, 10% WEHI-3B supplement (filtered supernatant of WEHI-3B cells secreting IL-3). Cultures were kept below 1.5 million cells/ml. Cells were washed three times in media without IL-3 (WEHI supplement) to induce apoptosis twelve hours prior to the isolation of mitochondria (Zamzami, N., Susin, S. A., Marchetti, P., Hirsch, T., Gomez-Monterrey, I., Castedo, M. and Kroemer, G. (1996).
Mitochondria were isolated from 2-15 g of FL5.12 cells as previously described for outer membrane preparations (Guo, L., Pietkiewicz, D., Pavlov, E. V., Kasianowicz, J. J., Korsmeyer, S. J., Antonsson, B. and Kinnally, K. W. (2004) American Journal of Physiology, Cell Biology. 286, C1109-17; Pavlov, E. V., Priault, M., Pietkiewicz, D., Cheng, E.H.-Y., Antonsson, B., Manon, S., Korsmeyer, S. J., Mannella, C. A. and Kinnally, K. W. (2001) J. Cell Biology 155, 725-732). Outer membranes were stripped from the inner membranes by French pressing isolated mitochondria using modifications of the method of Decker and Greenawalt (Decker, G. L. and Greenawalt, J. W. (1977) J. Ultrastr. Res. 59, 44-56) as described in (Pavlov, E. V., Priault, M., Pietkiewicz, D., Cheng, E.H.-Y., Antonsson, B., Manon, S., Korsmeyer, S. J., Mannella, C. A. and Kinnally, K. W. (2001) J. Cell Biology 155, 725-732). French pressing was done at 2000 PSI in 460 mM Mannitol 140 mM Sucrose 2 mM EDTA 10 mM HEPES pH 7.4. The pressed suspension was diluted 1:1 with 230 mM Mannitol 70 mM sucrose 1 mM EDTA 5 mM HEPES pH 7.4 and centrifuged at 10,000 rpm (12,000 g) for 10 minutes. Outer membranes were separated from inner membranes as described by Mannella (Mannella, C. A. (1982) J. Cell Biol. 94, 680-687).

[2] = tested on: MAC from apoptotic HeLa cells; experiment: Blockade of MAC in partially purified fractions from apoptotic HeLa cells treated with staurosporine; type: biochemical; details: unpublished results
[3] = tested on: permeability transition pore (PTP); details: mitochondria; cited from earlier work
[4] = tested on: neurons; details: cited from earlier work

IC50 [1]: 39 µM
SMILES: CCCCOc1cc(C(=O)NCCN(CC)CC)c2ccccc2n1 [dibucaine]
current flow through MAC upon perfusion of the bath ([1]; 50 μM, +20 mV): rapidly reduced | voltage dependence of MAC blockade [1]: not voltage dependent | Hill coefficient of MAC blockade [1]: 1.3±0.1 | reversibility of MAC blockade on removal by perfusion of the bath [1]: reversible | blockade of MAC compared with FL5.12 preparation [2]: similar | concentration that blocks the PTP [3]: 50 to 100 µM | concentration that blocks mitochondrial depolarization induced by glutamate [4]: 50 to 100 µM

SMILES: CCN(CC)CC(=O)Nc1c(C)cccc1C [lidocaine]
effect on MAC activity ([1]; 300 μM): little effect | effect on MAC activity ([1]; no concentration stated (FIG. 3B)): limited effects; also recorded: no effect | IC50 for MAC, stated in words [1]: mM to M

SMILES: CC(C)NCC(O)COc1cccc2ccccc12 (stereo not drawn) [propranolol]
voltage dependence of MAC blockade [1]: not voltage dependent | Hill coefficient of MAC blockade [1]: 2.1±0.2 | reversibility of MAC blockade on removal by perfusion of the bath [1]: not reversible

IC50 for MAC, stated in words [1]: high nanomolar range | IC50 [1]: 0.9 µM
SMILES: CN1CCN(CCCN2c3ccccc3Sc3ccc(C(F)(F)F)cc32)CC1 [trifluoperazine]
voltage dependence of MAC blockade [1]: not voltage dependent | Hill coefficient of MAC blockade [1]: 1.4±0.2 | reversibility of MAC blockade on removal by perfusion of the bath [1]: not reversible | concentration that blocks the PTP [3]: 10 to 20 µM | concentration that blocks mitochondrial depolarization induced by glutamate [4]: 10 to 20 µM
